The source of these data is ChEMBL document CHEMBL1143633, “Synthesis and cytotoxic evaluation of combretafurazans” (J Med Chem, 2005).

The experiment deals with SH-SY5Y. In words: Cytotoxicity against SH-SY5Y human neuroblastoma cell line was determined. In kind it is functional, cell-based.
Molecule `COc1ccc(-c2nonc2-c2cc(OC)c(OC)c(OC)c2)cc1[N+](=O)[O-]` came in with an IC50 of 72.5 nM. Under `COc1ccc(C(=O)C(=O)c2cc(OC)c(OC)c(OC)c2)cc1O` stands 524 nM; under `COc1ccc(-c2nonc2-c2cc(OC)c(OC)c(OC)c2)cc1O`, 1.4 nM.

In turn, `COc1ccc(-c2nonc2-c2cc(OC)c(OC)c(OC)c2)cc1N` gave an IC50 of 1.6 nM. To `COc1ccc(-c2nonc2-c2cc(OC)c(O)c(OC)c2)cc1O` belongs 17.5 nM; to `COc1ccc(-c2nonc2-c2cc(OC)c(OC)c(OC)c2)cc1`, 8.9 nM. To `COc1ccc(-c2nonc2-c2cc(OC)c(O)c(OC)c2)cc1` belongs 196 nM. Under `COc1ccc(C(=N/O)/C(=N\O)c2cc(OC)c(OC)c(OC)c2)cc1O` stands 254 nM; under `COc1ccc(/C=C\c2cc(OC)c(OC)c(OC)c2)cc1O` [COMBRETASTATIN A4], 5.8 nM.
